Experimental data published in patent publication US5116815A, “PF 1022 substance, method of treating helminthic parasitic infection and anthelmintic composition” (Meiji Seika Kaisha Ltd., priority 1989, dated 1992).
Where “and” joins values, the source holds several entries; their conditions need not be identical. Identical values can stand only once.

Assays:
[1] = test system: large intestinal roundworms (Ascaridia galli); experiment: Chicken large intestinal roundworm elimination test, single oral dose; assay type: in vivo; settings: chickens; for Mean % Elimination / % Elimination: 7 days; for Mean % Elimination / Mean % body weight gain: group of 3; for % Elimination / % Body weight gain: individual chicken; for Mean % body weight gain / % Body weight gain: after 7 days
Method: Chickens verified to be artificially infected with large intestinal roundworms (Ascaridia galli) by scatoscopy were used in groups of three animals. The PF 1022 substance was used at five levels of dose from 0.2 mg/kg to 3 mg/kg. A total of 18 chickens were used in 6 groups, inclusive of an untreated control group.
For administration, an amount of the PF 1022 substance exactly equal to the dose calculated on the basis of the body weight of each chicken was weighed and suspended in water containing carboxymethylcellulose (CMC), and the suspension was administered orally as a single dose using a stomach tube. After administration, the worms eliminated were counted daily for each chicken and, after 7 days, each chicken was sacrificed and autopsied and the worms remaining in the intestinal tract were counted. The percent elimination was calculated as follows: [formula] Furthermore, the body weight just prior to administration and the body weight after 7 days were measured for each chicken and the percent body weight gain was calculated as follows: [formula]

mammalian cell = experiment: Mammalian cell chromosomal aberration test; assay type: cell-based
[2] = test system: whipworms (Trichuris vulpisl); experiment: Anthelmintic effect on canine whipworms; assay type: in vivo; settings: dog; for whipworms eliminated / whipworms remaining: 7 days
Method: (§1) The PF 1022 substance was evaluated for its anthelmintic effect in dogs by orally administering it to dogs found to be infected with roundworms (Toxocara canis), hookworms (Ancylostoma caninum) and whipworms (Trichuris vulpisl), respectively, by scatoscopy.
Thus, the elimination was 100% in both cases. On the other hand, one of two dogs infected with the above-mentioned whipworms was given orally one single dose of 5 mg/kg and the other 10 mg/kg, and the worms eliminated and those remaining uneliminated during 7 days following administration were counted. […] At 10 mg/kg, 22 whipworms were eliminated while none were found remaining uneliminated. Thus, the elimination was 100%.

[3] = test system: roundworms (Toxocara canis); experiment: Anthelmintic effect on canine roundworms; assay type: in vivo; settings: dog, single oral dose 5 mg/kg
Method: as §1
The substance was orally administered once at the dose of 5 mg/kg to a dog infected with the roundworms or hookworms by admixing the substance with a small portion of the ordinary feed, and the worms eliminated and those remaining in the dog during 7 days following administration were counted.

[4] = test system: small intestinal hairworms (Trichostrongylus colubriformis); experiment: Sheep digestive tract nematodes, worms remaining in the intestinal tract; assay type: in vivo; settings: for Number of worms remaining in At autopsy: autopsy 7 days after administration, mean of 6 animals
Method: (§2) The PF 1022 substance was evaluated for its anthelmintic effect in sheep mixedly infected with fourth stomachworms (Ostertaqia circumcincta) and small intestinal hairworms (Trichostrongylus colubriformis) by administering it orally to 24 sheep artificially infected with said two worm species.
(§3) The infected sheep were divided into 4 groups of 6 animals, which were respectively given 1 mg/kg, 5 mg/kg, 10 mg/kg and 0 mg/kg (control) of the substance suspended in 0.5% CMC, via a stomach catheter. The observation items were the number of parasite eggs per gram of feces (EPG) before administration, the EPG 7 days after administration, and the number of worms remaining in the fourth stomach and that of worms remaining in the intestinal tract as found upon autopsy 7 days after administration.
(§4) Each numerical value given is the mean of 6 animals.

[5] = test system: fourth stomachworms (Ostertaqia circumcincta) and small intestinal hairworms (Trichostrongylus colubriformis); experiment: Sheep digestive tract nematodes, mixed infection, EPG; assay type: in vivo; settings: mean of 6 animals; for EPG At autopsy: 7 days after administration; for EPG Before administration: baseline
Method: as §2, §3, §4

[6] = test system: large intestinal roundworms (Ascaris suum); experiment: Anthelmintic activity against swine large intestinal roundworms; assay type: in vivo; settings: oral in feed; for Number of remaining worms: autopsy one week; for EPG Before administration: baseline; for EPG Upon autopsy: one week
Method: The anthelmintic effect of the PF 1022 substance in swine was evaluated by orally administering the substance to swine found to be infected with large intestinal roundworms (Ascaris suum) by scatoscopy.
The PF 1022 substance was administered either once at 5 mg/kg or 10 mg/kg, or at a daily dose of 1.25 mg/kg, 2.5 mg/kg or 5 mg/kg once daily for consecutive 2 days by admixing an amount of the substance as such equal to each dose with a small portion of the ordinary feed. After administration, the worms eliminated were counted and the feces examined for the number of roundworm eggs per gram of feces (EPG) daily. One week after commencement of administration, the animals were sacrificed and autopsied for counting the worms remaining in the intestinal tract.

[7] = single oral dose 0.2 mg/kg, 0.2 mg/kg
[8] = single oral dose 0.5 mg/kg, 0.5 mg/kg
[9] = single oral dose 1 mg/kg, 1 mg/kg
[10] = single oral dose 2 mg/kg, 2 mg/kg
[11] = single oral dose 3 mg/kg, 3 mg/kg
[12] = 2 administrations, 1.25 mg/kg/administration, 1.25 mg/kg
[13] = 2 administrations, 2.5 mg/kg/administration
[14] = 2 administrations, 5 mg/kg/administration

CC(C)C[C@H]1C(=O)O[C@H](Cc2ccccc2)C(=O)N(C)[C@@H](CC(C)C)C(=O)O[C@H](C)C(=O)N(C)[C@@H](CC(C)C)C(=O)O[C@H](Cc2ccccc2)C(=O)N(C)[C@@H](CC(C)C)C(=O)O[C@H](C)C(=O)N1C [PF 1022 substance]
Mean % Elimination ([1]; single oral dose 0.2 mg/kg): 18.5%
% Elimination [1, 7]: 12.9% and 16.0% and 26.7%
Mean % body weight gain ([1]; single oral dose 0.2 mg/kg): 9.6%
% Body weight gain [1, 7]: 6.3% and 8.4% and 14.0%
Mean % Elimination ([1]; single oral dose 0.5 mg/kg): 45.4%
% Elimination [1, 8]: 16.4% and 52.1% and 67.7%
Mean % body weight gain ([1]; single oral dose 0.5 mg/kg): 9.2%
% Body weight gain [1, 8]: 8.2% and 11.5% and 7.8%
Mean % Elimination ([1]; single oral dose 1 mg/kg): 74.1%
% Elimination [1, 9]: 60.0% and 76.1% and 86.2%
Mean % body weight gain ([1]; single oral dose 1 mg/kg): 8.7%
% Body weight gain [1, 9]: 8.2% and 6.6% and 11.2%
Mean % Elimination ([1]; single oral dose 2 mg/kg): 84.6%
% Elimination [1, 10]: 82.1% and 93.5% and 78.3%
Mean % body weight gain ([1]; single oral dose 2 mg/kg): 8.9%
% Body weight gain [1, 10]: 7.8% and 10.5% and 8.4%
% Elimination [1, 11]: 100% and 95.5% and 98.3%
% Body weight gain [1, 11]: 11.8% and 9.7% and 8.3%
mammalian cell chromosomal aberration test result (mammalian cell): negative
percent elimination ([2]; single oral dose 5 mg/kg): 39.4%
whipworms eliminated ([2]; single oral dose 5 mg/kg): 327
whipworms remaining ([2]; single oral dose 5 mg/kg): 504
elimination ([2]; single oral dose 10 mg/kg): 100%
whipworms eliminated ([2]; single oral dose 10 mg/kg): 22
whipworms remaining ([2]; single oral dose 10 mg/kg): none
elimination [3]: 100%
roundworms eliminated ([3]; 7 days): six
roundworms remaining ([3]; 7 days): no roundworms were found remaining
Number of worms remaining in At autopsy ([4]; oral 1 mg/kg): 8750
Number of worms remaining in At autopsy ([4]; oral 5 mg/kg): 8317
number of worms remaining in the intestinal tract relative to the control infected group ([4]; oral 10 mg/kg): about half
Number of worms remaining in At autopsy ([4]; oral 10 mg/kg): 5333
EPG At autopsy ([5]; oral 1 mg/kg): 3114
EPG Before administration ([5]; oral 1 mg/kg): 2447
EPG At autopsy ([5]; oral 5 mg/kg): 2462
EPG Before administration ([5]; oral 5 mg/kg): 2458
EPG At autopsy ([5]; oral 10 mg/kg): 1970
EPG Before administration ([5]; oral 10 mg/kg): 2332
Number of worms eliminated ([6]; 1 administration, 5 mg/kg): 12
Number of remaining worms ([6]; 1 administration, 5 mg/kg): 13
EPG Before administration ([6]; 1 administration, 5 mg/kg): 99000
EPG Upon autopsy ([6]; 1 administration, 5 mg/kg): 8000
Number of worms eliminated ([6]; 1 administration, 10 mg/kg): 7
Number of remaining worms ([6]; 1 administration, 10 mg/kg): 5
EPG Before administration ([6]; 1 administration, 10 mg/kg): 2100
EPG Upon autopsy ([6]; 1 administration, 10 mg/kg): 200
Number of worms eliminated ([6]; 2 administrations, 1.25 mg/kg/administration): 2
% Elimination [6, 12]: 18.2% and 33.3%
EPG Before administration [6, 12]: 2300 and 1800
Number of remaining worms [6, 13]: 1
EPG Before administration ([6]; 2 administrations, 2.5 mg/kg/administration, 2.5 mg/kg): 3300 and 3800
EPG Upon autopsy [6, 13]: 0
% Elimination [6, 14]: 100%
Number of worms eliminated [6, 14]: 13
Number of remaining worms [6, 14]: 0
EPG Before administration [6, 14]: 2700
EPG Upon autopsy [6, 14]: 0
